Assay [1] is described as follows: Fat-like richness and smoothness imparted to low-fat milk, quantitative sensory evaluation test. Type of assay: in vivo, human. The settings on record: for Fat-like richness / Smoothness: n=12, control 0, strong 3, very strong 5 points. The procedure:
The quantitative sensory evaluation test was performed as follows. Each of γ-Glu-Cys-Gly (glutathione), γ-Glu-Val-Gly, and γ-Glu-Abu-Gly was mixed with commercially-available low-fat milk (non-fat milk solids content: 8.6% or more, milk fat content: 1.5%) at a concentration of 0.00001 to 1 g/dl, and the intensity of imparting fat-like richness was measured.
It should be noted that each peptide was dissolved in low-fat milk, and then a sample, the pH of which was lowered, was adjusted with NaOH so that the pH might be ±0.2 with respect to the pH of the low-fat milk free of peptide.
The sensory score for fat-like richness and smoothness was defined as follows: control (free of peptide): 0 point; strong: 3 points; and very strong: 5 points. Then, the test was performed with n=12. […] As clear from Table 6, it was confirmed that the peptide imparted fat-like richness and smoothness to low-fat milk at a lower concentration than glutathione.
The quantitative sensory evaluation test was performed as follows. Each of γ-Glu-Val-Gly and cinacalcet was mixed with commercially-available low-fat milk (non-fat milk solids content: 8.6% or more, milk fat content: 1.5%) at a concentration of 0.00001 to 1 g/dl, and the intensity of imparting fat-like richness was measured.
It should be noted that each sample was dissolved in low-fat milk, and then a sample, the pH of which was lowered, was adjusted with NaOH so that the pH might be ±0.2 with respect to the pH of the low-fat milk free of a sample.
(§1) The sensory score for fat-like richness and smoothness was defined as follows: control (free of sample): 0 point; strong: 3 points; and very strong: 5 points. Then, the test was performed with n=12.

The nature of assay [2]: Fat-like richness and smoothness imparted to low-fat yogurt, quantitative sensory evaluation test. The settings on record: Table 10. Type of assay: in vivo, human. Here is the method: The quantitative sensory evaluation test was performed as follows. Each of γ-Glu-Val-Gly and cinacalcet was mixed with commercially-available low-fat yogurt (non-fat milk solids content: 10.0%, milk fat content: 1.0%) at a concentration of 0.00001 to 1 g/dl, and the intensity of imparting fat-like richness was measured.
It should be noted that after each sample was dissolved in low-fat yogurt, and a sample, the pH of which was lowered, was adjusted with NaOH so that the pH might be ±0.2 with respect to the pH of the […] free of a sample.
as §1

The mark [3] stands for this setting: 0.0001 g/dl in low-fat milk, Table 6.
Setting [4] is: 0.001 g/dl in low-fat milk, Table 6.
Where [5] appears, read: 0.001 g/dl in low-fat milk, Table 8.
[6] abbreviates: 0.01 g/dl in low-fat milk (milk fat 1.5%), Table 6.
Setting [7] is: 0.01 g/dl in low-fat milk, Table 6.

Starred links: 1 amine or outer side, 2 acyl side, 3 side chain; linkers in the order of their positions; H or OH if unused. Non-standard residues stand in square brackets, D forms with d. No end group written: not given here. γGlu = O=C(O)[C@H](CCC(=O)[*:2])N[*:1]; Abu = CC[C@H](N)C(=O)O

Regarding [γGlu]-Val-Gly, the Taste profile entry in assay [1] (setting [3]) is reported as “Taste is enhanced in middle”; in assay [1] (setting [4]), “Taste is enhanced in middle”; in assay [1] (setting [5]), “Taste is enhanced in middle taste”; in assay [2] (0.001 g/dl in low-fat yogurt) it was “Taste is enhanced in middle”. Also, the Fat-like richness was 2.5 points in assay [1] (setting [3]); 4.5 points in assay [1] (setting [4]); 4.5 points in assay [1] (setting [5]); 4.5 points in assay [2] (0.001 g/dl in low-fat yogurt (milk fat 1.0%), n=12, control 0, strong 3, very strong 5 points). In addition, the Smoothness in assay [1] (setting [3]) was determined as 2.3 points; in assay [1] (setting [4]), 4.0 points; in assay [1] (setting [5]) it was 4.0 points; in assay [2] (0.001 g/dl in low-fat yogurt, n=12, control 0, strong 3, very strong 5 points), 4.0 points.
`N[C@@H](CCC(=O)N[C@@H](CS)C(=O)NCC(=O)O)C(=O)O` [γ-Glu-Cys-Gly, reference compound]: in assay [1] (setting [6]), the Fat-like richness is recorded as 2.5 points. In assay [1] (setting [7]), the Taste profile entry is reported as “Growth exists in the whole” and the Smoothness amounted to 3.0 points.
Take [γGlu]-[Abu]-Gly: the Fat-like richness in assay [1] (setting [4]) stood at 2.3 points; in assay [1] (setting [6]), 4.3 points. Further, the Smoothness in assay [1] (setting [4]) stood at 3.0 points; in assay [1] (setting [7]), 4.0 points.

(Values after patent publication US8399417B2, “Food” (Ajinomoto Co., Inc., priority 2007, dated 2013).)
